Here are results for 15 molecules from paper PMC7956643, “Synthesis of Novel Pyrido[1,2-c]pyrimidine Derivatives with 6-Fluoro-3-(4-piperidynyl)-1,2-benzisoxazole Moiety as Potential SSRI and 5-HT1A Receptor Ligands” (International Journal of Molecular Sciences, 2021).

Marks after values point to notes of the source that are not given here.

Series [1] deals with T1, human 5-HT1A receptor (Homo sapiens, UniProt P08908).
T1 construct: purchased PerkinElmer; host or cells: CHO-K1 cells, stably transfected
T1 sequence (P08908 1-422): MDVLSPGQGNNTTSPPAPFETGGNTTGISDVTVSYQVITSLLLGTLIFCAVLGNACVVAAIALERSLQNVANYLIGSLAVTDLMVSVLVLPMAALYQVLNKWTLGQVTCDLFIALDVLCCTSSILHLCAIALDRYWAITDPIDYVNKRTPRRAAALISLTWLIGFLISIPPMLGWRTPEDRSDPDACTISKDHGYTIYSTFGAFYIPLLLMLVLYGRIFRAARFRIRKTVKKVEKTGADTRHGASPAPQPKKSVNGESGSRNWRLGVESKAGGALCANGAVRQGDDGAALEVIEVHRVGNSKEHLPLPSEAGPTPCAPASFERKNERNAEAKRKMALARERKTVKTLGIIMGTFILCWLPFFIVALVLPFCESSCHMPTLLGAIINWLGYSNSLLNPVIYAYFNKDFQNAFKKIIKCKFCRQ
The series can be described thus: 5-HT1A radioligand binding assay. The following applies: [3H]-8-OH-DPAT 1 nM; membranes from CHO-K1 cells with human 5-HT1A receptor. How it is done:
Radioligand binding was performed using membranes from CHO-K1 cells stably transfected with the human 5-HT1A receptor (PerkinElmer, Fremont, CA, USA). All assays were carried out in duplicate. Then, 50 µL working solution of the tested compounds, 50 µL [^3H]-8-OH-DPAT (final concentration 1 nM) and 150 µL diluted membranes (20 µg protein per well) prepared in assay buffer (50 mM Tris, pH 7.4, 10 mM MgSO4, 0.5 mM EDTA, 0.1% ascorbic acid) were transferred to a polypropylene 96-well microplate using 96-wells pipetting station Rainin Liquidator (MettlerToledo, Columbus, OH, USA). […] The reaction was terminated by rapid filtration through GF/B filter mate, presoaked with 0.5% polyethyleneimine for 30 min. Ten rapid washes with 200 µL 50 mM Tris buffer (4 °C, pH 7.4) were performed using an automated harvester system—Harvester-96 MACH III FM (Tomtec, Hamden, CT, USA). […] Data were fitted to a one-site curve-fitting equation with Prism 6 (GraphPad Software, San Diego, CA, USA) and Ki values were estimated from the Cheng–Prusoff equation.

For series [2], the target named is T2, SERT protein (Rattus norvegicus, UniProt P31652).
T2 construct: from tissue; host or cells: rat cortex
Briefly: SERT radioligand binding assay. The following applies: [3H]-citalopram 1.0 nM; rat cortex tissue. As for the experimental part: Radioligand binding was performed using rat cortex tissue. All assays were carried out in duplicate. First, 50 µL working solution of the tested compounds, 50 µL [^3H]-citalopram (final concentration 1.0 nM) and 150 µL tissue suspension, prepared in assay buffer (50 mM Tris. pH 7.7; 150 mM NaCl; 5 mM KCl), were transferred to a polypropylene 96-well microplate using 96-wells pipetting station Rainin Liquidator (MettlerToledo). […] The reaction was terminated by rapid filtration through GF/B filter mate presoaked with 0.3% polyethyleneimine for 30 min. Ten rapid washes with 200 µL 50 mM Tris buffer (4 °C, pH 7.7) were performed using an automated harvester system—Harvester-96 MACH III FM (Tomtec). […] Data were fitted to a one-site curve-fitting equation with Prism 6 (GraphPad Software) and Ki values were estimated from the Cheng–Prusoff equation.

In series [3] the target is T3, 5-HT1A receptor (Mus musculus, UniProt Q64264).
T3 construct: from tissue; host or cells: whole animal, male CD-1 mice
T3 sequence (Q64264 1-421): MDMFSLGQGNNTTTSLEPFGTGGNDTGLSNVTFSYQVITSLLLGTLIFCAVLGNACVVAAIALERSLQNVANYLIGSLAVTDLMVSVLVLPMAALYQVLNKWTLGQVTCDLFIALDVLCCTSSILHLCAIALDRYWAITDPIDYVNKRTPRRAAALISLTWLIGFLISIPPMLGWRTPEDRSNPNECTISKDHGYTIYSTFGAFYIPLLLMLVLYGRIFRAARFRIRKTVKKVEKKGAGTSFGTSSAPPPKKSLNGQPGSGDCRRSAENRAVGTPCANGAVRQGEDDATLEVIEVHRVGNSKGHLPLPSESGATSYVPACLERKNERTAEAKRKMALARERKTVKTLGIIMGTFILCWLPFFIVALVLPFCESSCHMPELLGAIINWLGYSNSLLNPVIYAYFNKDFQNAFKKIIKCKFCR
The series can be described thus: Body temperature in mice (induced hypothermia). Type of series: in vivo, CD-1 mice. The settings on record: mice, 5 mg/kg sc. As for the experimental part:
The experiments were performed on male CD-1 mice (23–40 g). The animals were kept at room temperature (21 ± 2 °C) on a natural day-night cycle (March–October) and housed under standard laboratory conditions. They had free access to food and tap water before the experiment. Each experimental group consisted of 6–8 animals/dose. All the animals were used only once. 8-Hydroxy-2-(di-n-propylamino)tetralin hydro-bromide (8-OH-DPAT, Research Biochemical Inc.) was used as aqueous solution. […] Vehicle group was administered as 10% aqueous solution of dimethyl sulphoxide (DMSO). 8-OH-DPAT was injected subcutaneously (sc); 6a and 7g were given intraperitoneally (ip) in a volume of 10 mL/kg/mice. The obtained data were analyzed by Dunnett’s test (one drug administration) or by the Newman–Keuls test (two drugs administrations). Forced swim test: the obtained data was evaluated by one-way analysis of variance (ANOVA) followed by the Dunnett’s multiple comparisons test: p < 0.05 was considered significant.
The results were expressed as a change in body temperature (Δt) with respect to the basal body temperature, as measured at the beginning of the experiment.

T2 sequence (P31652 whole entry): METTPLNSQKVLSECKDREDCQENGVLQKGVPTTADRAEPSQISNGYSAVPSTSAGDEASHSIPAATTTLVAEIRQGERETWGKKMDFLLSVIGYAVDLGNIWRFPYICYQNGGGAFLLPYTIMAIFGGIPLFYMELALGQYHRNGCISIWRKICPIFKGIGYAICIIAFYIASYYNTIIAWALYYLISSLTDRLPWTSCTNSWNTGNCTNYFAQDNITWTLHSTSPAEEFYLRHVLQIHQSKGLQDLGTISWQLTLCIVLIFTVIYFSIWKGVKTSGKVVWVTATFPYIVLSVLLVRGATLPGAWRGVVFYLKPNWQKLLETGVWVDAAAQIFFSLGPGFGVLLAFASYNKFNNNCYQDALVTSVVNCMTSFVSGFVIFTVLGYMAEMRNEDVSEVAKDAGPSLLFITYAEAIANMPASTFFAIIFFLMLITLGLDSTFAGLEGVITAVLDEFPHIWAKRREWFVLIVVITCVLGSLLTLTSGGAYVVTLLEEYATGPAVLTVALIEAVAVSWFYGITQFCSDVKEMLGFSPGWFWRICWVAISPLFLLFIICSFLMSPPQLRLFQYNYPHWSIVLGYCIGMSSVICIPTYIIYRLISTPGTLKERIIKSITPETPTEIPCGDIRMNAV

With `Cc1ccccc1-c1c(=O)n(CCCCN2CCC(c3noc4cc(F)ccc34)CC2)c(=O)n2ccccc12` [Compound 6b, 4-(2-Methylphenyl)-2-{4-[4-(6-fluoro-1,2-benzoxazol)-1-piperidyl]butyl}-pyrido[1,2-c]pyrimidine-1,3-dione], the melting point lay within 120 to 122 °C. The Ki in series [1] was 30 ± 3.5 nM. Besides, the Ki in series [2] is more than 5000 nM.

As for `COc1ccccc1-c1c(=O)n(CCCCN2CCC(c3noc4cc(F)ccc34)CC2)c(=O)n2ccccc12` [Compound 6c, 4-(2-Methoxphenyl)-2-{4-[4-(6-fluoro-1,2-benzoxazol)-1-piperidyl]butyl}-pyrido[1,2-c]pyrimidine-1,3-dione], the melting point lay within 65 to 70 °C. The molecule further yielded a Ki in series [1] of 7 ± 1 nM. Also, the Ki in series [2] was more than 5000 nM.

In the case of `O=c1c(-c2ccccc2F)c2ccccn2c(=O)n1CCCCN1CCC(c2noc3cc(F)ccc23)CC1` [Compound 6e, 4-(2-Fluorophenyl)-2-{4-[4-(6-fluoro-1,2-benzoxazol)-1-piperidyl]butyl}-pyrido[1,2-c]pyrimidine-1,3-dione], the melting point was in the range of 58 to 62 °C. This molecule also returned a Ki in series [1] of 15 ± 0.6 nM. The Ki in series [2] is more than 1000 nM.

In the case of `Cc1ccc(-c2c(=O)n(CCCCN3CCC(c4noc5cc(F)ccc45)CC3)c(=O)n3ccccc23)cc1` [Compound 6f, 4-(4-Methylphenyl)-2-{4-[4-(6-fluoro-1,2-benzoxazol)-1-piperidyl]butyl}-pyrido[1,2-c]pyrimidine-1,3-dione], the melting point was in the range of 158 to 159 °C. Further, the Ki in series [1] was 74 ± 4 nM. Besides, the affinity in series [2], expressed as Ki, was 772 ± 36 nM.

For `COc1ccc(-c2c(=O)n(CCCCN3CCC(c4noc5cc(F)ccc45)CC3)c(=O)n3ccccc23)cc1` [Compound 6g, 4-(4-Methoxyphenyl)-2-{4-[4-(6-fluoro-1,2-benzoxazol)-1-piperidyl]butyl}-pyrido[1,2-c]pyrimidine-1,3-dione], the melting point lay in the range of 163 to 166 °C. In series [1], this molecule yielded an inhibition constant (Ki) of 10 ± 1.1 nM. The affinity in series [2] corresponds to a Ki of 730 ± 79 nM.

For `O=c1c(-c2ccc(Cl)cc2)c2ccccn2c(=O)n1CCCCN1CCC(c2noc3cc(F)ccc23)CC1` [Compound 6h, 4-(4-Chlorophenyl)-2-{4-[4-(6-fluoro-1,2-benzoxazol)-1-piperidyl]butyl}-pyrido[1,2-c]pyrimidine-1,3-dione], the melting point was in the range of 152 to 155 °C. Further, the inhibitory constant (Ki) in series [1] is 21 ± 1.5 nM. Also, in series [2], the affinity corresponds to a Ki of 310 ± 1 nM.

Molecule `O=c1c(-c2ccc(F)cc2)c2ccccn2c(=O)n1CCCCN1CCC(c2noc3cc(F)ccc23)CC1` [Compound 6i, 4-(4-Fluorophenyl)-2-{4-[4-(6-fluoro-1,2-benzoxazol)-1-piperidyl]butyl}-pyrido[1,2-c]pyrimidine-1,3-dione] had a melting point of 102 to 107 °C. In addition, in series [1], the affinity corresponds to a Ki of 17 ± 2 nM. Also, the Ki in series [2] worked out at 342 ± 28.8 nM.

`O=c1c(-c2ccccc2)c2n(c(=O)n1CCCCN1CCC(c3noc4cc(F)ccc34)CC1)CCCC2` [Compound 7a, 4-Phenyl-2-{4-[4-(6-fluoro-1,2-benzoxazol-3-yl)-1-piperidyl]butyl}-5,6,7,8-tetrahydro-pyrido[1,2-c]pyrimidine-1,3-dione]: the melting point fell in the range of 110 to 113 °C. Further, in series [1], the inhibition constant Ki is 27 ± 2 nM. In series [2], this molecule came in with a Ki of 520 ± 58.8 nM.

On to `Cc1ccccc1-c1c2n(c(=O)n(CCCCN3CCC(c4noc5cc(F)ccc45)CC3)c1=O)CCCC2` [Compound 7b, 4-(2-Methylphenyl)-2-{4-[4-(6-fluoro-1,2-benzoxazol)-1-piperidyl]butyl}-5,6,7,8-tetrahydro-pyrido[1,2-c]pyrimidine-1,3-dione], for which the inhibition constant (Ki) in series [1] is 35 ± 3.5 nM; in series [2] it was more than 1000 nM.

`COc1ccccc1-c1c2n(c(=O)n(CCCCN3CCC(c4noc5cc(F)ccc45)CC3)c1=O)CCCC2` [Compound 7c, 4-(2-Methoxphenyl)-2-{4-[4-(6-fluoro-1,2-benzoxazol)-1-piperidyl]butyl}-5,6,7,8-tetrahydro-pyrido[1,2-c]pyrimidine-1,3-dione]: the values for the inhibition constant (Ki) in series [1] and in series [2] were 62 ± 6 nM and 878 ± 88 nM, respectively.

Consider `O=c1c(-c2ccccc2Cl)c2n(c(=O)n1CCCCN1CCC(c3noc4cc(F)ccc34)CC1)CCCC2` [Compound 7d, 4-(2-Chlorophenyl)-2-{4-[4-(6-fluoro-1,2-benzoxazol)-1-piperidyl]butyl}-5,6,7,8-tetrahydro-pyrido[1,2-c]pyrimidine-1,3-dione], for which the inhibition constant (Ki) in series [1] stood at 71 ± 6.9 nM; in series [2], 310 ± 34.5 nM.

Turning to `O=c1c(-c2ccccc2F)c2n(c(=O)n1CCCCN1CCC(c3noc4cc(F)ccc34)CC1)CCCC2` [Compound 7e, 4-(2-Fluorophenyl)-2-{4-[4-(6-fluoro-1,2-benzoxazol)-1-piperidyl]butyl}-5,6,7,8-tetrahydro-pyrido[1,2-c]pyrimidine-1,3-dione], the inhibition constant (Ki) in series [1] is 36 ± 4.1 nM; in series [2] it was more than 1000 nM.

`Cc1ccc(-c2c3n(c(=O)n(CCCCN4CCC(c5noc6cc(F)ccc56)CC4)c2=O)CCCC3)cc1` [Compound 7f, 4-(4-Methylphenyl)-2-{4-[4-(6-fluoro-1,2-benzoxazol)-1-piperidyl]butyl}-5,6,7,8-tetrahydro-pyrido[1,2-c]pyrimidine-1,3-dione] showed a melting point of 107 to 110 °C. The Ki in series [1] stood at 52 ± 2.5 nM. In addition, in series [2], the inhibition constant (Ki) is 1770 ± 180 nM.

For `O=c1c(-c2ccc(Cl)cc2)c2n(c(=O)n1CCCCN1CCC(c3noc4cc(F)ccc34)CC1)CCCC2` [Compound 7h, 4-(4-Chlorophenyl)-2-{4-[4-(6-fluoro-1,2-benzoxazol)-1-piperidyl]butyl}-5,6,7,8-tetrahydro-pyrido[1,2-c]pyrimidine-1,3-dione], the melting point is 116 to 120 °C. In series [1], this molecule returned a Ki of 25 ± 3 nM. For the same molecule, the inhibition constant (Ki) in series [2] stood at 290 ± 22.7 nM.

In the case of `CCCN(CCC)C1CCc2cccc(O)c2C1` (stereo not drawn) [Compound 8-OH-DPAT, 8-Hydroxy-2-(di-n-propylamino)tetralin hydro-bromide, reference compound], the “Δt ± SEM, body temperature” value was −1.7 ± 0.2 ^b °C in series [3] (30 min), −1.1 ± 0.2 ^b °C in series [3] (60 min), −0.1 ± 0.1 °C in series [3] (90 min) and 0.3 ± 0.3 °C in series [3] (120 min).

As a reminder, the Ki is a dissociation constant, usually derived from enzyme kinetics or from competition with a known ligand. Low readings indicate a stronger hold on the target, high ones a looser hold on the target. What is called melting point is the temperature, or range, at which the solid turns liquid.
